For one experiment, the system named is M. hyorhinis BST7. The experiment can be described thus: Anti-mycoplasmal activity (MIC), agar-dilution method. The class given is cell-based, Mycoplasma hyorhinis. Particulars: Mesomycoplasma hyorhinis. How it is done:
(§1) The minimum growth inhibitory concentrations (MIC; μg/ml) of the test chemicals were measured by the agar-dilution method.
(§2) (1) Preparation of a mycoplasma suspension for inoculation
(§3) A stored frozen suspension of mycoplasma (0.2 to 0.3 ml) was inoculated in 2 to 3 ml of a preculture medium to be described later. It was serially diluted tenfold until the dilution ratio reached 10,000 times. These diluted solutions were cultivated at 37° C. for 2 to 7 days. A culture having the highest dilution ratio was selected from those cultures in which a color change of the media was noted as a result of mycoplasma growth. It was diluted to 100 times with the preculture medium to prepare a mycoplasma suspension for inoculation.
(§4) The following preculture media were used.
For Mycoplasma hyorhinis, a liquid medium (pH 7.8) for isolation of Mycoplasma hyorhinis [Journal of the Japan Veterinary Medical Association,32, 34-38 (1979)] was used.
(§5) (2) Preparation of agar plates containing the test chemicals
(§6) A 1,000 μg/ml aqueous solution of each test chemical was prepared (a difficultly-soluble chemical was dissolved by adding an equimolar amount of sodium hydroxide; the same applies hereinafter). The solution was used as a base solution and its twofold serial dilutions were prepared. The diluted solutions were pipetted on plastic petri dishes each in an amount of 1 ml. The Chanock agar medium (for Mycoplasma hyorhinis, 0.5% mucin was further added) described at page 9 of the above cited "Procedures for Isolation and Identification of Human, Animal and Plant Mycoplasmas" was heated and kept at 55° C. and put in an amount of 9 ml in each of the petri dishes containing the test chemicals and fully mixed with the test chemicals to prepare agar plates containing the test chemicals.
(§7) The mycoplasma suspension for inoculation prepared by the procedure described in section (1) was inoculated in an amount of about 3 microliters on each of the chemical-containing agar plates by means of a Cathra-replicator (3 mm pin). The plates on which Mycoplasma pneumoniae, Mycoplasma arginini, and Acholeplasma laidlawii and Mycoplasma hyorhinis were inoculated were tightly packed in a plastic bag together with the plasic petri dishes including water-immersed absorbent cotton. Mycoplasma pneumoniae was aerobically cultivated at 37° C. under highly humid conditions for 7 days; and Mycoplasma arginini and Acholeplasma laidlawii, for 2 days. The other mycoplasma species were cultivated anaerobically for 2 days by using a GasPak anaerobic system (BBL). After the cultivation, growth of mycoplasma were observed under an OLYMPUS microscope (20-100 X). The lowest concentration of the test chemical at which no growth of mycoplasma was noted is defined as MIC.

Another experiment concerns M. arginini G230. The experiment is described as above. It is filed as cell-based, Mycoplasma arginini. Conditions: Mycoplasmopsis arginini. The protocol: as §1, §2, §3, §4
(§8) For other mycoplasma species, Chanock liquid medium (pH 6.8) containing 0.2% arginine was used.
as §5, §6, §7

The subject of the next experiment is A. laidlawii PG-8. Description: Anti-mycoplasmal activity (MIC, MMC), liquid dilution method. The class given is cell-based. Particulars: Acholeplasma laidlawii. How it is done: (§9) The minimum growth inhibitory concentration (MIC, μg/ml) and minimum mycoplasmacidal concentration (MMC, μg/ml) of test chemicals were measured by the liquid dilution method. The method of measuring MIC in this example differs from that used in Test Example 1.
(§10) A 1,000 μg/ml aqueous solution of a test chemical was prepared, and diluted to 5 times with a preculture medium. The dilution (200 μg/ml) was serially diluted twofold with the same medium in a 8-well reservoir. Fifty microliters of each diluted solution was distributed in the wells of a microplate. A well to which no test chemical was added was used as a control.
(§11) A mycoplasma suspension for inoculation prepared as in Test Example 1 was pipetted in an amount of 50 microliters to each of the wells. The microplates were sealed by a plate seal, shaken by a micromixer, and cultivated at 37° C. for 5 days. In the control to which no test chemical was added, color change of the medium by the growth of mycoplasma was observed after two days from the start of the cultivation. At this time, 3 microliters of the liquid culture was inoculated in drug-free Chanock agar medium by using a Cathra-replicator. The liquid culture and the agar medium were further cultivated at 37° C. for 3 days (anaerobically in the case of M. orale, and aerobically in the case of A. laidlawii and M. arginini). MIC and MMC were determined from the results of observation on the 5th day. MIC was defined as the lowest concentration of the test chemical at which growth of mycoplasma in the drug-containing liquid medium was not noted, and MMC, as that in the drug-free agar medium.

The next experiment has as its system M. arginini G-230. Described as above. It is filed as cell-based, Mycoplasma arginini. Conditions: Mycoplasmopsis arginini. The protocol:
as §9, §10, §11

Another experiment concerns M. orale CH-19299. The description is as above. The class given is cell-based, Mycoplasma orale. Particulars: Metamycoplasma orale. How it is done:
as §9, §10, §11

A further experiment relates to FL human-amnion cells. The experiment can be described thus: Cytotoxicity on FL cells (cell proliferation inhibition). It is filed as cell-based. Conditions: Homo sapiens, 72 h, read-out: IC50 (50% cell proliferation inhibitory concentration).
The subject of another experiment is A. laidlawii PG8. The experiment can be described thus: Anti-mycoplasmal activity (MIC), agar-dilution method. It is filed as cell-based. Particulars: Acholeplasma laidlawii. The protocol: as §1, §2, §3, §4
(§12) For Mycoplasma pneumoniae and Acholeplasma laidlawii, Chanock liquid medium containing 0.5% glucose (pH 7.8) [Library of Bacteriology 2, "Procedures for Isolation and Identification of Human, Animal and Plant Mycoplasmas", edited by Japanese Society for Bacteriology, page 8 (1982), Saikon Publishing Co.] was used.
as §5, §6, §7

For another experiment, the system named is M. orale CH19299. The description is as above. Conditions: Metamycoplasma orale. It is filed as cell-based, Mycoplasma orale. How it is done: as §1, §2, §3, §4, §8, §5, §6, §7
The test system of the next experiment is M. salivarium PG20. Described as above. The class given is cell-based, Mycoplasma salivarium. Particulars: Metamycoplasma salivarium. The protocol:
as §1, §2, §3, §4, §8, §5, §6, §7

For another experiment, the system named is M. pnumoniae Mac. The description is as above. The class given is cell-based, Mycoplasma pneumoniae. Particulars: Mycoplasma. The protocol: as §1, §2, §3, §4, §12, §5, §6, §7
The subject of a further experiment is mycoplasma. Particulars: in words, background; cited from earlier work.

Converted amounts (≈) assume the structure as drawn. Read-outs that look alike come from different tables or passages of the source.

Experimental for FL human-amnion cells: Whether test chemicals would inhibit growth of cells was examined.
A 1,000 μg/ml aqueous solution of each of the test chemicals was serially diluted twofold with Eagle's minimum essential medium.
FL human-amnion cells (2×10^4 cells) were suspended in 3.6 ml of 10% FBS-MEM medium, put in petri dishes (diameter 60 mm) for tissue culture, and cultivated at 37° C. in 5% CO2 humidified atmosphere for 48 hours. The test chemical solution prepared as above was added in an amount of 0.4 ml to each of the petri dishes in predetermined concentrations, and the cells were cultivated for 3 days. After the cultivation, the medium was removed, and the remainder was washed once with Dulbecco's phosphate buffer (pH 7.4). The cells were peeled off by adding 0.2 ml of a 2.5% trypsin-0.002% EDTA mixed solution (1:9) and properly diluted with 10% FBS-MEM medium. Then, the number of the cells was counted by an Erma hemocytometer.
The cell proliferation rate was calculated by following formula [formula]

For `O=C(O)c1cn(C2CC2)c2cc(N3CCNCC3)c(F)cc2c1=O` [Compound 2, ciprofloxacin], the MIC in the experiment with M. hyorhinis BST7 (BST7) was found to be 0.78 µg/mL (≈ 2.35 µM); in the experiment with M. arginini G230 (G230), 0.78 µg/mL (≈ 2.35 µM); in the experiment on A. laidlawii PG-8 (PG8), 0.39 µg/mL (≈ 1.18 µM); against M. arginini G-230 (G230), 0.78 µg/mL (≈ 2.35 µM); in the experiment with M. orale CH-19299 (CH19299) it was 1.56 µg/mL (≈ 4.71 µM); in the experiment on A. laidlawii PG8 (PG8), 0.39 µg/mL (≈ 1.18 µM). Moreover, the MIC stood at 1.56 µg/mL (≈ 4.71 µM) in the experiment with M. orale CH19299 (CH19299), 3.13 µg/mL (≈ 9.45 µM) with M. salivarium PG20 (PG20) and 0.39 µg/mL (≈ 1.18 µM) in the experiment on M. pnumoniae Mac. The MBC with A. laidlawii PG-8 (PG8, 120 h, read-out: MMC) was determined as 0.39 µg/mL (≈ 1.18 µM); in the experiment on M. arginini G-230 (G230, 120 h, read-out: MMC), 0.78 µg/mL (≈ 2.35 µM); in the experiment on M. orale CH-19299 (CH19299, 120 h, read-out: MMC), 1.56 µg/mL (≈ 4.71 µM). Further, in the experiment with FL human-amnion cells, the IC50 was 28 µg/mL (≈ 84.5 µM).

With `CC1COc2c(N3CCN(C)CC3)c(F)cc3c(=O)c(C(=O)O)cn1c23` (stereo not drawn) [Compound 4], the minimal inhibitory concentration (MIC) in the experiment with M. hyorhinis BST7 (agar dilution, M. hyorhinis BST7, read-out: MIC) was 3.13 µg/mL (≈ 8.66 µM); in the experiment with M. arginini G230 (agar dilution, M. arginini G230, read-out: MIC) it was 0.78 µg/mL (≈ 2.16 µM); in the experiment on A. laidlawii PG8 (agar dilution, A. laidlawii PG8, read-out: MIC), 0.78 µg/mL (≈ 2.16 µM); in the experiment with M. orale CH19299 (agar dilution, M. orale CH19299, read-out: MIC), 1.56 µg/mL (≈ 4.32 µM); with M. salivarium PG20 (agar dilution, M. salivarium PG20, read-out: MIC) it was 6.25 µg/mL (≈ 17.3 µM); in the experiment on M. pnumoniae Mac (agar dilution, M. pnumoniae Mac, read-out: MIC), 0.78 µg/mL (≈ 2.16 µM).

Take `C=C[C@]1(C)C[C@@H](OC(=O)CSCCN(CC)CC)[C@]2(C)[C@H](C)CC[C@]3(CCC(=O)[C@H]32)[C@@H](C)[C@@H]1O` [tiamulin]: in the experiment with mycoplasma, the “minimum growth inhibitory concentration (MIC) for mycoplasma” value is on record as “low”; the “mode of action on mycoplasma” value is “only act bacteriostatically and not mycoplasmacidally”.

The MIC is the least concentration at which growth counts as inhibited.
